In test [1] the test system is tight junction proteins (ZO-1, Occludin, Claudin-5). Briefly: Real-time PCR, mRNA expression of tight junction proteins in brain microvessels of diabetic mice. Format: in vivo. Here is the method:
Male laca mice weighing between 28-32 g were procured from the Central Animal House, Panjab University, Chandigarh. The animals were acclimatized and were fed with standard pellet diet and water ad libitum. The experimental protocols were approved by the Institutional Ethics Committee and were conducted according to Indian National Science Academy (INSA) guidelines for the use and care of experimental animals. The animals were divided into four groups: (i) Control animals received phosphate buffered saline (PBS) throughout the study; (ii) Control+GSNO animals were administered with GSNO 100 μg/kg body weight orally, dissolved in PBS after every 24 h for 8 weeks; (iii) Diabetic animals were injected with STZ at a dose of 40 mg/kg body weight intraperitoneally for 5 days dissolved in 0.1 mol/L citrate buffer, pH 4.5 and Diabetic+GSNO mice were administered GSNO 100 μg/kg body weight orally dissolved in PBS after every 24 h for 8 weeks after the induction of diabetes. Animals were assessed weekly for development of diabetic encephalopathy in terms of memory deficits. All experimental procedures were done on mice at the end of study.
The microvessels were isolated by the method described by Brooks et al., (2005). Brain tissue was homogenized in microisolation buffer (103 mM NaCl, 4.7 mM KCl, 2.5 mM CaCb, 1.2 mM KH2PO4, 1.2 mM MgSO4, 15 mM HEPES, 2.5 mM NaHCO3, 10 mM D-glucose, 1 mM sodium pyruvate and 10 g/L dextran (64,000 mol wt), pH 7.4) and equal amount of 26% (w/v) dextran was added. […]
PCR Total RNA was extracted from microvessels obtained from brain tissue using TriReagent®. […] The concentration of RNA obtained was determined by 260/280 nm ratio using a Nanodrop™ Spectrophotometer (Nanodrop™ 1000, Thermo Scientific®, Waltham, USA). The integrity and overall quality of RNA was evaluated using agarose gel electrophoresis. […] The data obtained was analyzed by the LightCycler 480 Software, Version 1.5. […] Glyceraldehyde-3-phosphate dehydrogenase was used as the reference gene and the relative gene expression was determined using delta-delta Ct method as described by Pfaffl et al., (2002).
A general note: In qPCR the cycle at which signal appears reflects the starting amount.

For test [2], the system named is protein-associated S-nitrosothiols. Briefly: Assay for protein-associated S-nitrosylation (biotin-switch) in hBMVECs. The format is cell-based, human. The note with it: various concentrations, incubated 2 hr. How it is done: Cell culture: Primary human brain microvascular endothelial cells (hBMVECs) were purchased from Angio-Proteomie (Cat #: cAP-0002, Atlanta, Ga.). The cells were cultured in cell culture flasks or plates precoated with Quick Coating Solution (Angio-Proteomie; Cat #: cAP-01) and maintained in Endothelial Growth Medium (Angio-Proteomie; Cat #: cAP-02) at 37° C. under 5% CO2/95% air. When the cells were almost confluent, the medium was replaced with endothelial basal medium (Angio-Proteomie; Cat #: cAP-03) containing 0.5% fetal bovine serum (FBS; Life Technologies, Grand Island, N.Y.) about 8-12 hours before the experiment. No institutional approval was required for this study. The study was not pre-registered.
Assay for protein-associated S-nitrosylation: Protein S-Nitrosylation was analyzed by using biotin-switch method as described in our previous reports (Kim et al., 2014; Prasad et al., 2007). hBMVECs were lysed in 250 mM HEPES, pH 7.7, 1 mM EDTA, 0.1 mM neocuproine, 1% Nonidet P-40, 150 mM NaCl, 1 mM phenylmethanesulfonylfluoride, 20 mM methyl methanethiosulfonate (MMTS), 80 μM carmustine, protease inhibitor mixture (Sigma-Aldrich), and mixed with an equal volume of 25 mM HEPES, pH 7.7, 0.1 mM EDTA, 10 μM neocuproine, 5% SDS, 20 mM MMTS and incubated at 50° C. for 20 min. […] Following acetone precipitation, biotinylated (S-nitrosylated) proteins were analyzed by Western analysis. […]

Where [3] appears, read: cortex and hippocampus, diabetic mice + GSNO 100 μg/kg oral 8 weeks, vs diabetic.

Regarding `N[C@@H](CCC(=O)N[C@@H](CSN=O)C(=O)NCC(=O)O)C(=O)O` [GSNO, S-nitrosoglutathione], in test [1] (GSNO treated diabetic animals), the “mRNA expression of claudin-5” value was “no significant change”. In test [1] (setting [3]), the “mRNA expression of ZO-1” value came to 2 fold and the “mRNA expression of occludin” value was found to be 2 fold. Besides, in test [2], the “RhoA S-nitrosylation” value was “increased” and the “cellular levels of protein-associated S-nitrosothiols” value was “increased”.

These data come from patent publication US10925858B2, “S-nitrosoglutathione (GSNO) and GSNO reductase inhibitors for use in therapy” (MUSC FOUNDATION FOR RESEARCH DEVELOPMENT, priority 2017, dated 2021).
